# The source made the active and inactive calls. The rule behind the calls is not given here.
# Experiments:
# [1] = Metabolic stability in human liver microsomes assessed as intrinsic clearance per g protein at 10 uM […] in presence of NADPH by LC-MS/MS analysis; type: ADME, Microsome
# [2] = Tmax in BALB/c mouse at 5 mg/kg, iv measured upto 24 hrs by LC-MS/MS analysis; type: ADME, organism-based; conditions: in vivo
# [3] = AUC(0 to t) in BALB/c mouse at 5 mg/kg, iv measured upto 24 hrs by LC-MS/MS analysis; type: ADME, organism-based; conditions: in vivo
# [4] = MRT(0 to t) in BALB/c mouse at 5 mg/kg, po measured upto 24 hrs by LC-MS/MS analysis; type: ADME, organism-based; conditions: in vivo
# [5] = Oral bioavailability in BALB/c mouse at 5 mg/kg measured upto 24 hrs by LC-MS/MS analysis; type: ADME, organism-based; conditions: in vivo
# LX-2 = experiment: Cytotoxicity against human LX-2 cells at 5 uM incubated for 72 hrs by MTT assay; type: toxicity, cell-based; conditions: lx-2, 72 h
# AML12 = experiment: Cytotoxicity against mouse AML12 cells at 5 uM incubated for 72 hrs by MTT assay; type: toxicity, cell-based; conditions: aml12, 72 h
# NRK-49F = experiment: Cytotoxicity against rat NRK-49F cells at 5 to 20 uM incubated for 72 hrs by MTT assay; type: toxicity, cell-based; conditions: dose 5-20 µM
# Cytochrome P450 3A4 = Cytochrome P450 3A4 (Homo sapiens, UniProt P08684); experiment: Inhibition of human CYP3A4 upto 10 uM relative to control; type: ADME
# Cytochrome P450 2D6 = Cytochrome P450 2D6 (Homo sapiens, UniProt P10635); experiment: Inhibition of human CYP2D6 at 10 uM relative to control; type: ADME
# [6] = molecular target: NACHT, LRR and PYD domains-containing protein 3 (Mus musculus, UniProt Q8R4B8); experiment: Inhibition of NLRP3 inflammasome activation in LPS/nigericin stimulated mouse BMDMs assessed as reduction in IL-1beta release pretreated with LPS for 3 hrs followed by compound addition for 40 mins prior to nigericin stimulation for 40 mins by ELISA; type: cell-based, BMDM
# [7] = molecular target: NACHT, LRR and PYD domains-containing protein 3 (Mus musculus) (UniProt Q8R4B8); experiment: Inhibition of NLRP3 inflammasome activation in LPS/nigericin stimulated mouse BMDMs assessed as reduction in caspase-1 release pretreated with LPS for 3 hrs followed by compound addition for 40 mins prior to nigericin stimulation for 40 mins by Western blotting analysis; type: cell-based; conditions: BMDM, time 80.0 min
# [8] = molecular target: NACHT, LRR and PYD domains-containing protein 3 (Mus musculus) (UniProt Q8R4B8); experiment: Inhibition of NLRP3 inflammasome activation in LPS/nigericin stimulated mouse BMDMs assessed as effect on pro-caspase-1 expression pretreated with LPS for 3 hrs followed by compound addition for 40 mins prior to nigericin stimulation for 40 mins by Western blotting analysis; type: cell-based; conditions: BMDM, time 80.0 min
# [9] = molecular target: NACHT, LRR and PYD domains-containing protein 3 (Mus musculus) (UniProt Q8R4B8); experiment: Inhibition of LPS/nigericin induced NLRP3 inflammasome activation in mouse BMDMs assessed as reduction in pyroptosis by measuring […] at 2 to 31.25 nM; type: cell-based; conditions: BMDM, dose 2-31.25 nM
# [10] = molecular target: NACHT, LRR and PYD domains-containing protein 3 (Mus musculus) (UniProt Q8R4B8); experiment: Inhibition of NLRP3 inflammasome activation in mouse BMDMs assessed as effect on pro-IL-1beta expression at 2 to 31.25 nM pretreated with LPS for 3 hrs followed by compound addition for 40 mins; type: cell-based; conditions: BMDM, dose 2-31.25 nM
# BMDM = experiment: Reduction in LDH release in LPS/nigericin stimulated mouse BMDMs at 5 to 80 nM; type: functional, cell-based; conditions: dose 5-80 nM
# [11] = molecular target: NACHT, LRR and PYD domains-containing protein 3 (Mus musculus) (UniProt Q8R4B8); experiment: Inhibition of NLRP3 inflammasome activation in LPS stimulated mouse BMDMs assessed as reduction in IL-1beta release at 2 to 31.25 nM pretreated with LPS for 3 hrs followed by compound addition for 40 mins prior to ATP stimulation for 1 hr by ELISA; type: cell-based; conditions: BMDM, dose 2-31.25 nM, time 100.0 min
# [12] = molecular target: NACHT, LRR and PYD domains-containing protein 3 (Mus musculus) (UniProt Q8R4B8); experiment: Inhibition of NLRP3 inflammasome activation in LPS stimulated mouse BMDMs assessed as reduction in IL-1beta release at 2 to 31.25 nM pretreated with LPS for 3 hrs followed by compound addition for 40 mins prior to alum stimulation for 6 hrs by ELISA; type: cell-based; conditions: BMDM, dose 2-31.25 nM, time 400.0 min
# [13] = molecular target: NACHT, LRR and PYD domains-containing protein 3 (Mus musculus) (UniProt Q8R4B8); experiment: Inhibition of NLRP3 inflammasome activation in LPS stimulated mouse BMDMs assessed as reduction in IL-1beta release at 2 to 31.25 nM pretreated with LPS for 3 hrs followed by compound addition for 40 mins prior to MSU stimulation for 6 hrs by ELISA; type: cell-based; conditions: BMDM, dose 2-31.25 nM, time 400.0 min
# [14] = molecular target: NLR family CARD domain-containing protein 4 (Mus musculus) (UniProt Q3UP24); experiment: Inhibition of flagellin stimulated NLRC4 inflammasome activation in mouse BMDMs assessed as reduction in IL-1beta secretion at 0.1 to 10 uM pretreated with LPS for 3 hrs followed by compound addition for 40 mins prior to flagellin stimulation for 6 hrs by ELISA; type: cell-based; conditions: BMDM, dose 0.1-10 µM, time 400.0 min
# [15] = molecular target: NLR family CARD domain-containing protein 4 (Mus musculus) (UniProt Q3UP24); experiment: Inhibition of flagellin stimulated NLRC4 inflammasome activation in mouse BMDMs assessed as reduction in IL-1beta secretion pretreated with LPS for 3 hrs followed by compound addition for 40 mins prior to flagellin stimulation for 6 hrs by Western blotting analysis; type: cell-based; conditions: BMDM, time 400.0 min
# [16] = molecular target: T1, Interferon-inducible protein AIM2 (Mus musculus) (UniProt Q91VJ1); experiment: Inhibition of poly dA:dT stimulated AIM2 inflammasome activation in mouse BMDMs assessed as reduction in IL-1beta secretion pretreated with LPS for 3 hrs followed by compound addition for 40 mins prior to poly dA:dT stimulation for 6 hrs by Western blotting analysis; type: cell-based; conditions: BMDM, time 400.0 min
# T1 sequence (whole entry): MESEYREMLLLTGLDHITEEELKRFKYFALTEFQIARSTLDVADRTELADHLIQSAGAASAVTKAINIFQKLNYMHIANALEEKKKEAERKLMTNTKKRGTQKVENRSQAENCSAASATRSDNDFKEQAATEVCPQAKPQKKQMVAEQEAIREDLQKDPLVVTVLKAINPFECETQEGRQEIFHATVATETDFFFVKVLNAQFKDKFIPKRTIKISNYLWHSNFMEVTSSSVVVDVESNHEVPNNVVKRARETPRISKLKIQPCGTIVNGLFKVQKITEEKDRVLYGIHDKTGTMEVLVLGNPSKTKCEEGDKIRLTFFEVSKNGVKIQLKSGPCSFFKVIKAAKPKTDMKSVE
# THP-1 = experiment: Inhibition of nigericin induced ASC specks formation in PMA differentiated human THP-1 cells at 5 to 80 nM pretreated with LPS for 3 hrs followed by compound addition for 40 mins prior to nigericin stimulation for 40 mins by Western blotting analysis; type: functional, cell-based; conditions: dose 5-80 nM, time 80.0 min
# Mus musculus [17] = experiment: Antiinflammatory activity against LPS induced septic shock in BALB/c mouse assessed as increase in survival rate at 25 mg/kg, ip pretreated for 1 hr followed by LPS stimulation and measured after 72 hrs; type: functional; conditions: time 73 hrs
# Mus musculus [18] = experiment: Antiinflammatory activity against LPS induced septic shock in BALB/c mouse assessed as reduction in TNFalpha level at 25 mg/kg, ip pretreated for 1 hr followed by LPS stimulation and measured after 3 hrs by ELISA; type: functional, organism-based; conditions: time 4.0 hrs
# Mus musculus [19] = experiment: Inhibition of MSU crystal induced peritonitis in BALB/c mouse assessed as reduction in IL-1beta level in peritoneal lavage fluids at 50 to 100 mg/kg, ip pretreated with LPS for 3 hrs followed by compound addition prior to MSU stimulation for 6 hrs by ELISA; type: functional, organism-based; conditions: dose 50-100 mg/kg
# Sequence of NACHT, LRR and PYD domains-containing protein 3 (Mus musculus) (Q8R4B8 whole entry, the tested form may be a part): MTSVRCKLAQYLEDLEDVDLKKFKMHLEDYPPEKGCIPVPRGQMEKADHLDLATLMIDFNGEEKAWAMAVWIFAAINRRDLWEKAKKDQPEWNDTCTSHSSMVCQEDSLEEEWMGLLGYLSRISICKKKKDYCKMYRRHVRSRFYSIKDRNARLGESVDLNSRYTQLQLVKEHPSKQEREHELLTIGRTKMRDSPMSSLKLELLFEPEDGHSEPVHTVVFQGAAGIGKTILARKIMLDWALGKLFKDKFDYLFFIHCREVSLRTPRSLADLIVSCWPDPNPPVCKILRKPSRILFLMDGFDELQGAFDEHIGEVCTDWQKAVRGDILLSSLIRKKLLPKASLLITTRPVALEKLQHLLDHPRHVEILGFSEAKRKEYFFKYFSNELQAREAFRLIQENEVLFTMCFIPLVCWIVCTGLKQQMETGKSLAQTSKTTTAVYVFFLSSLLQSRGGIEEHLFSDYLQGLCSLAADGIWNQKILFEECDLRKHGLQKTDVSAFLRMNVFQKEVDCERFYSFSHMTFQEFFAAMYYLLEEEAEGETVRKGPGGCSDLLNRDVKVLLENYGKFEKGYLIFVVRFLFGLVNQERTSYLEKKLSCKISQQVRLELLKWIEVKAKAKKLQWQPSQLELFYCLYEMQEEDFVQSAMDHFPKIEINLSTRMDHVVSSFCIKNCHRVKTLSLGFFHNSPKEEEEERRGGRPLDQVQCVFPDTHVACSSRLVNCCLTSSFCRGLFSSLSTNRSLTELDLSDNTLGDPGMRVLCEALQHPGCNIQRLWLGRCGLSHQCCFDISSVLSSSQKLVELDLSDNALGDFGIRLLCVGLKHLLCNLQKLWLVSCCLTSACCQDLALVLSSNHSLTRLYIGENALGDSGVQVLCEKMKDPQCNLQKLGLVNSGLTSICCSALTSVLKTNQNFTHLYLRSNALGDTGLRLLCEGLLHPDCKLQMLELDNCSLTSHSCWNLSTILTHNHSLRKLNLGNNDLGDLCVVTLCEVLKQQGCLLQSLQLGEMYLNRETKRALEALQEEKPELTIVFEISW
# Sequence of NLR family CARD domain-containing protein 4 (Mus musculus) (Q3UP24 whole entry, the tested form may be a part): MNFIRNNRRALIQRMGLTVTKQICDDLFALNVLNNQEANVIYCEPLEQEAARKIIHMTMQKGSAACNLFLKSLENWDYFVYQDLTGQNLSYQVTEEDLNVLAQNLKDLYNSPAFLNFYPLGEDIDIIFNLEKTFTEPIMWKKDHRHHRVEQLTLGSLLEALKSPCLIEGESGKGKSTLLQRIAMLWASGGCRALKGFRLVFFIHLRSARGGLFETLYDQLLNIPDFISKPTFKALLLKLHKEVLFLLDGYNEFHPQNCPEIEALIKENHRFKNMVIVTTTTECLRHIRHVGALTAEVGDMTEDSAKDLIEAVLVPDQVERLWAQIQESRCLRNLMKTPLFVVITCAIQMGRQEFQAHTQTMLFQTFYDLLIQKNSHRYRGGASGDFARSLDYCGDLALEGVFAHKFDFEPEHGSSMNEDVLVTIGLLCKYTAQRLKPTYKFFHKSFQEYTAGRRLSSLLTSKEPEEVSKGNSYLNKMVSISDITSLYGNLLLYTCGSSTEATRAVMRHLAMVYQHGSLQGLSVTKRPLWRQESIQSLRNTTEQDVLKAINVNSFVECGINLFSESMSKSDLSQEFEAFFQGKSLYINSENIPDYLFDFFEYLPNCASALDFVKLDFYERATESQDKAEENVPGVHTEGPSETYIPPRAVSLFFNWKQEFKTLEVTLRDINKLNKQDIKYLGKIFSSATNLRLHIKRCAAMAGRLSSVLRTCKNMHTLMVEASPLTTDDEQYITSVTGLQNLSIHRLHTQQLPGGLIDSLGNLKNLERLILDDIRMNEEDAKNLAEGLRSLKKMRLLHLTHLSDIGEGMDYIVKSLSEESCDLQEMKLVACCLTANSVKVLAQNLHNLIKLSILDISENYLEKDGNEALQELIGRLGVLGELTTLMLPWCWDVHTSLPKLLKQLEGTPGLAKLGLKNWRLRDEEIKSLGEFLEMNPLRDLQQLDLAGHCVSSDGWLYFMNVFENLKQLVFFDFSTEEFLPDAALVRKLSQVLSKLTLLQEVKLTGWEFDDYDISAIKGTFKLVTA
# Sequence of Cytochrome P450 3A4 (P08684 whole entry): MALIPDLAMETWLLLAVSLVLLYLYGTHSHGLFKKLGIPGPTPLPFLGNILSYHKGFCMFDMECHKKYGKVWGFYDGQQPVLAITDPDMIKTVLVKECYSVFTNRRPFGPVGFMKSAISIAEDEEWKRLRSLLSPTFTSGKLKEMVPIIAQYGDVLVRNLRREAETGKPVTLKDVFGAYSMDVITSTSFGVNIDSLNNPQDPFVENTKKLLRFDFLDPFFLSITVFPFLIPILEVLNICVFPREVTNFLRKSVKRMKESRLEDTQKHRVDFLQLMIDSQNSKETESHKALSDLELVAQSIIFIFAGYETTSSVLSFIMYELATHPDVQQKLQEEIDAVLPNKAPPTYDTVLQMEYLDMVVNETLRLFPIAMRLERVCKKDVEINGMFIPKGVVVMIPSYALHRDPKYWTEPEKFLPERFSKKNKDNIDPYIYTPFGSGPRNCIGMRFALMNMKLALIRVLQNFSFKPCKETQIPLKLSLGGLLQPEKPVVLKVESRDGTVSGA
# Sequence of NACHT, LRR and PYD domains-containing protein 3 (Q8R4B8 whole entry, the tested form may be a part): as the sequence (Q8R4B8 whole entry, the tested form may be a part) above
# Sequence of Cytochrome P450 2D6 (P10635 whole entry, the tested form may be a part): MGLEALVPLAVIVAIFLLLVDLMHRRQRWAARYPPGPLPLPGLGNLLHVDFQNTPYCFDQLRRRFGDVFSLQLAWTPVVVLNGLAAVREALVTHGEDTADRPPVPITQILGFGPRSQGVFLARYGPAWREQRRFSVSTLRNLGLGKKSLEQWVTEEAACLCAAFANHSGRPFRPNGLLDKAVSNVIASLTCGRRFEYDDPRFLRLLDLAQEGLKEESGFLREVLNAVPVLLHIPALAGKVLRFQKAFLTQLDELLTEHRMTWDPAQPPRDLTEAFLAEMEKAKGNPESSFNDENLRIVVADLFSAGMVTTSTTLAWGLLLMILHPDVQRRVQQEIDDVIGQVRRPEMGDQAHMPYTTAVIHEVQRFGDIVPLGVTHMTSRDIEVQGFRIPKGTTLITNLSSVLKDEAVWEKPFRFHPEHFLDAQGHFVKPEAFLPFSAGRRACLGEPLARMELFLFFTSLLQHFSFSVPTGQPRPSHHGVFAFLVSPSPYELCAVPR
smiles,measurement,setting,value
OCCN1CCC[C@@H](Nc2nnc(-c3ccc4occc4c3O)c3c2C2CCC3CC2)C1,intrinsic clearance,[1],< 12 mL/min
same,Tmax,[2],4.98 min
same,AUC(0-t) at 24 h,[3],9520 ng·h/mL
same,MRT last at 24 h,[4],6.07 h
same,bioavailability,[5],62%
same,Activity,LX-2,Non-Toxic
same,Activity,AML12,Non-Toxic
same,Activity,NRK-49F,Non-Toxic
same,inhibition (INH),Cytochrome P450 3A4,Not Active
same,inhibition (INH),Cytochrome P450 2D6,Active
same,IC50,[6],15.3 nM
same,inhibition,[7],Dose-Dependent Effect
same,inhibition,[8],inactive
same,inhibition,[9],Active
same,inhibition,[10],inactive
same,Activity,BMDM,Dose-Dependent Effect
same,inhibition,[11],Active
same,inhibition,[12],Active
same,inhibition,[13],Active
same,inhibition,[14],inactive
same,inhibition,[15],inactive
same,inhibition,[16],inactive
same,inhibition,THP-1,Active
same,Activity,Mus musculus [17],82%
same,Activity,Mus musculus [18],Active
same,inhibition,Mus musculus [19],Active
